Test [1] has as its system R. solani AG2-2 CuHav-Rs18. The test is described as follows: Fungal plug-CLP droplet assay (growth inhibition and microscopy). In kind it is cell-based. The text has this: (§1) The cocoyam rhizosphere isolate, P. myriotylum CMR1 [42], was maintained on Potato Dextrose Agar (PDA) for three days prior to use. The bean root rot pathogen, R. solani AG2-2 CuHav-Rs18 [43], was maintained on the same media for four days before use. The fungal plug-CLP method was used. Sterile microscopic glass slides were covered with a thin, flat layer of water agar (Bacto agar; Difco) and placed in a plastic Petri dish containing a moist sterile filter paper. An agar plug (diameter = 5 mm) taken from an actively growing colony of R. solani or P. myriotylum and placed on top at the center of each glass slide. Stock solutions of purified CLPs were made by dissolution in Dimethyl sulfoxide (DMSO). Serial dilutions of […], 1 µM, 10 µM, 25 µM and 50 µM were prepared using sterile milliQ water. For each dilution, two droplets (15 μL each) of purified CLP (WLIP, pseudodesmin or viscosinamide) were placed on two sides of the glass slide (about 2 cm from the fungal plug). For the control treatment, 0.5% DMSO was used. All plates were incubated for 48 h (P. myriotylum) or 72 h (R. solani) at 28 °C before evaluation under an Olympus BX51 microscope. The images were processed using TopView software. Using a vernier caliper, the inhibition zones were measured as the distance between the CLP droplet and the growing edge of the pathogen. The growth inhibition effect of pure compounds towards both plant pathogens was expressed relative to the mycelial growth in the control. Five replicates of each slide were used. Representative photos are shown.

A further test deals with P. myriotylum CMR1. The test is described as above. In kind it is cell-based, Pythium myriotylum. The following applies: for Effect on growth of P. myriotylum mycelium (inhibition zone): all concentrations tested (100 nM, 1, 10, 25, 50 µM), 48 h, 28 °C, n = 5.
Excerpt: as §1

Test [2] deals with six Gram-positive bacterial strains. The following applies: cited from earlier work. The text has this:
Viscosinamide and pseudodesmin CLPs are neutral, have similar amino acid (AA) composition and only differ from each other by the stereochemistry on the 5th AA [30]. […] A recent study tested the antibacterial activity of 20 novel synthesized pseudodesmin A analogs and reported a mode of action determined by the macrocycle closed by an ester bond and the critical length of the β-OH fatty acid chain capping the N-terminus.

The test system of another test is P. myriotylum. Nature of the test: Pathogen perception experiment (one CLP droplet). In kind it is cell-based, Pythium myriotylum. The following applies: one 15 µL CLP droplet 2 cm from the plug, other side blank. The protocol:
(§2) For pathogen perception experiments, the afore-described plug-CLP droplet method was employed with slight modifications. Only one 15 µL CLP droplet was introduced 2 cm away from the fungal plug, while the other side of the plug remained blank. Results were assessed by observing whether or not the pathogen only grew towards the CLP droplet or in both directions. Pathogen-CLP interaction was evaluated microscopically and pictures were taken.

Test [3] relates to R. solani. Nature of the test: Pathogen perception experiment (one CLP droplet). It counts as cell-based. Particulars: one 15 µL CLP droplet 2 cm from the plug, other side blank. The protocol:
as §2

Test [4] deals with R. solani. The following applies: cited from earlier work. The text has this:
(§3) Antimicrobial activities of Viscosin-group CLPs have been reported, including antibacterial activity. […] When challenged with viscosinamide, cellular changes were detected in the mycelia of both P. ultimum and R. solani.

Another test has as its system Pythium ultimum. The following applies: cited from earlier work.
Excerpt: as §3

The mark [5] stands for this setting: purified viscosinamide produced by P. fluorescens DR54.

The values below come from PMC7409209, “Biosynthesis and Antimicrobial Activity of Pseudodesmin and Viscosinamide Cyclic Lipopeptides Produced by Pseudomonads Associated with the Cocoyam Rhizosphere” (Microorganisms, 2020).

As for pseudodesmin A, the “Visual inhibition zone, R. solani AG 2-2” value was “visual inhibition zone” in test [1] (100 nM, 72 h, 28 °C); “became enhanced” in test [1] (higher concentrations of 1, 10, 25 and 50 µM, compared with 100 nM). Also, the “Hyphal morphology of R. solani (microscopy)” value (from here on “Hyphal morphology of R. solani”) in test [1] (0.1, 1, 10, 25 and 50 µM) is “CLP evasion by the pathogen, hyphae distortion and the disintegration of hyphae with debris observed on the slide”. For the same substance, the “Hyphal morphology of P. myriotylum (microscopy)” value in the test with P. myriotylum CMR1 (100 nM, 10 µM and 25 µM) is “increased/hyper branching, hyphal distortion and CLP evasion”. Also, in the test on P. myriotylum CMR1, the “Effect on growth of P. myriotylum mycelium (inhibition zone)” value is “significantly inhibited pathogen growth”. Besides, the “Antibacterial activity, pseudodesmin compared with viscosinamide” value in test [2] was “equal activity”.

For “White Line-Inducing Principle [WLIP, reference compound]”, in the test with P. myriotylum, the “Perception of the CLP by P. myriotylum (direction of growth)” value is “grew evenly on sides with or without the CLP”. Further, the “Visual inhibition zone, R. solani AG 2-2” value in test [1] (100 nM, 72 h, 28 °C) is “slight inhibition zone”; in test [1] (highest concentration (50 µM)), “strong inhibition”; in test [1] (intermediate concentrations) it was “unclear”. The “Hyphal morphology of R. solani” value was “increased branching as they grew in the direction of the compound” in test [1] (hyphae growing towards the compound, concentration not specified) and “disintegration of hyphae was observed” in test [1] (upon contact with the compound, concentration not specified). The “Effect on growth of P. myriotylum mycelium (inhibition zone)” value in the test on P. myriotylum CMR1 is “visual inhibition zones that could not be easily measured”. In the test with P. myriotylum CMR1 (concentration not specified), the “Hyphal morphology of P. myriotylum (microscopy)” value was “hyphal disintegration, timely evasion and an absence of branching”. Besides, in the test on R. solani [3], the “Perception of the CLP by R. solani (direction of growth)” value is recorded as “appeared not to recognize WLIP but grew towards it until hyphal disintegration occurred”.

viscosinamide A: the “Hyphal morphology of R. solani” value was “mycelia distortion and disintegration was observed in combination with a coordinated formation of melanized structures by multiple primary hyphae” in test [1] (50 µM); “CLP evasion, hyphal distortion and the rupturing of contents” in test [1] (all concentrations tested except 50 µM). Besides, the “Visual inhibition zone, R. solani AG 2-2” value in test [1] (all concentrations tested (100 nM-50 µM)) is “no visual inhibition zone was observed in treatments with viscosinamide except at 10 µM”. Moreover, the “Hyphal morphology of P. myriotylum (microscopy)” value with P. myriotylum CMR1 (50 µM) is “enhanced elongation of primary mycelium and the formation of convergent structures by mycelia”. The “Effect on growth of P. myriotylum mycelium (inhibition zone)” value in the test with P. myriotylum CMR1 was “enhanced the growth of P. myriotylum mycelium without any visible inhibition zone”. Besides, the “Antibacterial activity, pseudodesmin compared with viscosinamide” value in test [2] was “equal activity”. In addition, the “Cellular changes in mycelia of R. solani” value in the test with R. solani [4] (fluorescent stains) was “extensive branching, increased hyphal septation and swelling and decreased the hydrophobicity of cell walls and membranes”. Further, the “Effect on growth of R. solani” value in the test on R. solani [4] (setting [5]) is “reduced fungal growth and the aerial mycelium development”. In addition, the “Cellular changes in mycelia of P. ultimum” value in the test on Pythium ultimum (fluorescent stains) was “extensive branching, increased hyphal septation and swelling and decreased the hydrophobicity of cell walls and membranes”. Also, the “Effect on growth of Pythium ultimum” value with Pythium ultimum (setting [5]) was “reduced fungal growth and the aerial mycelium development”.
